According to ChEMBL document CHEMBL5518244, “Design, Synthesis, and Biological Evaluation of a Novel NIK Inhibitor with Anti-Inflammatory and Hepatoprotective Effects for Sepsis Treatment” (J Med Chem, 2024):
Calls of active or inactive are those of the source. The calls are words filed in the database; no cut-off is given here.

Columns and labels:
[1] = Half life in C57BL/6J mouse at 10 mg/kg, iv measured upto 24 hrs by LC-MS/MS analysis; format: ADME, organism-based; conditions: in vivo
Mus musculus [2] = assay: Antisepsis effect in LPS-induced sepsis C57BL/6J mouse model assessed as protection by measuring mouse survival at 10 mg/kg, ip measured after 7 days relative to control; format: functional, organism-based; conditions: time 7.0 day
[3] = Tmax in C57BL/6J mouse at 10 mg/kg, po measured upto 24 hrs by LC-MS/MS analysis; format: ADME, organism-based; conditions: in vivo
Mus musculus [4] = assay: Antisepsis effect in LPS-induced sepsis C57BL/6J mouse model assessed as prevention of liver injury by measuring decrease in serum AKP level at 10 mg/kg, ip measured after 7 days by biochemical assay; format: functional, organism-based; conditions: time 7.0 day
Mus musculus [5] = assay: Antisepsis effect in LPS-induced sepsis C57BL/6J mouse model assessed as prevention of lung injury at 10 mg/kg, ip measured after 7 days by hematoxylin and eosin staining based assay; format: functional, organism-based; conditions: time 7.0 day
[6] = biological target: T1, Mitogen-activated protein kinase kinase kinase 14 (Homo sapiens, UniProt Q99558); assay: Inhibition of NIK (unknown origin) expressed in COS-7 cells co-expressing NF-KappaB luciferase reporter assessed as suppression of luciferase reporter measured after 24 by beta-Gal activity assay; format: cell-based
[7] = AUClast in C57BL/6J mouse at 10 mg/kg, iv measured upto 24 hrs by LC-MS/MS analysis; format: ADME, organism-based; conditions: in vivo
Mus musculus [8] = assay: Antisepsis effect in LPS-induced sepsis C57BL/6J mouse model assessed as protection by measuring mouse survival at 10 mg/kg, ip measured at 48 hrs relative to control; format: functional, organism-based
Mus musculus [9] = assay: Antisepsis effect in LPS-induced sepsis C57BL/6J mouse model assessed as prevention of liver injury by measuring decrease in serum AST level at 10 mg/kg, ip measured after 7 days by biochemical assay; format: functional, organism-based; conditions: time 7.0 day
Mus musculus [10] = assay: Antisepsis effect in LPS-induced sepsis C57BL/6J mouse model assessed as decrease in serum IL-1beta level at 10 mg/kg, ip measured after 7 days by ELISA; format: functional, organism-based; conditions: time 7.0 day
RAW264.7 [11] = assay: Cytotoxicity against mouse RAW264.7 cells assessed as cell viability at 5 uM by CCK8 assay; format: toxicity, cell-based; conditions: raw264.7, 5 µM
Mus musculus [12] = assay: Inhibition of noncanonical NF-kappaB signaling pathway LPS-induced sepsis C57BL/6J mouse model assessed as decrease in p52 protein level at 10 mg/kg, ip measured after 7 days by immunoblotting analysis; format: functional, organism-based; conditions: time 7.0 day
Macrophage = assay: Anti-inflammatory activity in mouse macrophages extracted from abdominal activity assessed as inhibition of LPS-induced nitric oxide production at 1 uM measured after 22 hrs by Griess reagent assay relative to control; format: functional, cell-based
[13] = Half life in C57BL/6J mouse at 10 mg/kg, po measured upto 24 hrs by LC-MS/MS analysis; format: ADME, organism-based; conditions: in vivo
[14] = Cmax in C57BL/6J mouse at 10 mg/kg, po measured upto 24 hrs by LC-MS/MS analysis; format: ADME, organism-based; conditions: in vivo
Mus musculus [15] = assay: Antisepsis effect in LPS-induced sepsis C57BL/6J mouse model assessed as decrease in serum IFN-gamma level at 10 mg/kg, ip measured after 7 days by ELISA; format: functional, organism-based; conditions: time 7.0 day
Mus musculus [16] = assay: Antisepsis effect in LPS-induced sepsis C57BL/6J mouse model assessed as prevention of liver injury by measuring decrease in serum ALT level at 10 mg/kg, ip measured after 7 days by biochemical assay; format: functional, organism-based; conditions: time 7.0 day
[17] = AUClast in C57BL/6J mouse at 10 mg/kg, po measured upto 24 hrs by LC-MS/MS analysis; format: ADME, organism-based; conditions: in vivo
RAW264.7 [18] = assay: Anti-inflammatory activity in mouse RAW264.7 cells assessed as suppression of LPS/CD40-induced IL-1beta secretion at 5 uM pretreated for 2 hrs followed stimulated with LPS/CD40 for 22 hrs by ELISA; format: functional, cell-based; conditions: time 24.0 hrs
Mus musculus [19] = assay: Inhibition of noncanonical NF-kappaB signaling pathway LPS-induced sepsis C57BL/6J mouse model assessed as increase in p100 protein level at 10 mg/kg, ip measured after 7 days by immunoblotting analysis; format: functional, organism-based; conditions: time 7.0 day
[20] = Metabolic stability in rat liver microsomes assessed as half life at 1 uM measured upto 60 mins by LC-MS/MS analysis; format: ADME, Microsome
Mus musculus [21] = assay: Antisepsis effect in LPS-induced sepsis C57BL/6J mouse model assessed as prevention of necrosis in liver tissue at 10 mg/kg, ip measured after 7 days by hematoxylin and eosin staining based assay; format: functional, organism-based; conditions: time 7.0 day
RAW264.7 [22] = assay: Anti-inflammatory activity in mouse RAW264.7 cells assessed as suppression of LPS/CD40-induced TNFalpha secretion at 5 uM pretreated for 2 hrs followed stimulated with LPS/CD40 for 22 hrs by ELISA; format: functional, cell-based; conditions: time 24.0 hrs
[23] = Metabolic stability in mouse liver microsomes assessed as half life at 1 uM measured upto 60 mins by LC-MS/MS analysis; format: ADME, Microsome
[24] = Metabolic stability in mouse liver microsomes assessed as intrinsic clearance at 1 uM measured upto 60 mins by LC-MS/MS analysis; format: ADME, Microsome; conditions: read-out: CLH
[25] = Initial plasma concentration in C57BL/6J mouse at 10 mg/kg, iv measured upto 24 hrs by LC-MS/MS analysis; format: ADME, organism-based
RAW264.7 [26] = assay: Anti-inflammatory activity in mouse RAW264.7 cells assessed as suppression of LPS/CD40-induced IL-6 secretion at 5 uM pretreated for 2 hrs followed stimulated with LPS/CD40 for 22 hrs by ELISA; format: functional, cell-based; conditions: time 24.0 hrs
Mus musculus [27] = assay: Antisepsis effect in LPS-induced sepsis C57BL/6J mouse model assessed as decrease in serum TNFalpha level at 10 mg/kg, ip measured after 7 days by ELISA; format: functional, organism-based; conditions: time 7.0 day
Mus musculus [28] = assay: Antisepsis effect in LPS-induced sepsis C57BL/6J mouse model assessed as decrease in serum IL-6 level at 10 mg/kg, ip measured after 7 days by ELISA; format: functional, organism-based; conditions: time 7.0 day
RAW264.7 [29] = assay: Cytotoxicity against mouse RAW264.7 cells assessed as cell viability at 1 uM by CCK8 assay; format: toxicity, cell-based; conditions: raw264.7, 1 µM
[30] = biological target: T1, Mitogen-activated protein kinase kinase kinase 14; assay: Inhibition of NIK (unknown origin) incubated 30 to 60 mins by ADP-Glo Kinase
Mus musculus [31] = assay: Antisepsis effect in LPS-induced sepsis C57BL/6J mouse model assessed as prevention of kidney injury at 10 mg/kg, ip measured after 7 days by hematoxylin and eosin staining based assay; format: functional, organism-based; conditions: time 7.0 day
Mus musculus [32] = assay: Antisepsis effect in LPS-induced sepsis C57BL/6J mouse model assessed as decrease in serum CXCL-12 level at 10 mg/kg, ip measured after 7 days by ELISA; format: functional, organism-based; conditions: time 7.0 day
[33] = AUCinf in C57BL/6J mouse at 10 mg/kg, po measured upto 24 hrs by LC-MS/MS analysis; format: ADME, organism-based; conditions: in vivo
[34] = Metabolic stability in rat liver microsomes assessed as intrinsic clearance at 1 uM measured upto 60 mins by LC-MS/MS analysis; format: ADME, Microsome; conditions: read-out: CLH
Mus musculus [35] = assay: Antisepsis effect in LPS-induced sepsis C57BL/6J mouse model assessed as prevention of infiltration of inflammatory cells at 10 mg/kg, ip measured after 7 days by immunohistochemistry staining of F4/80 imaging based assay; format: functional, organism-based; conditions: time 7.0 day
[36] = Clearance in C57BL/6J mouse at 10 mg/kg, iv measured upto 24 hrs by LC-MS/MS analysis; format: ADME, organism-based; conditions: in vivo
COS-7 [37] = assay: Cytotoxicity against African green monkey COS-7 cells assessed as cell viability at 5 uM by CCK8 assay; format: toxicity, cell-based; conditions: chlorocebus aethiops, cos-7, 5 µM
Mus musculus [38] = assay: Antisepsis effect in LPS-induced sepsis C57BL/6J mouse model assessed as prevention of tubular injury at 10 mg/kg, ip measured after 7 days by hematoxylin and eosin staining based assay; format: functional, organism-based; conditions: time 7.0 day
COS-7 [39] = assay: Cytotoxicity against African green monkey COS-7 cells assessed as cell viability at 1 uM by CCK8 assay; format: toxicity, cell-based; conditions: chlorocebus aethiops, cos-7, 1 µM
[40] = AUCinf in C57BL/6J mouse at 10 mg/kg, iv measured upto 24 hrs by LC-MS/MS analysis; format: ADME, organism-based; conditions: in vivo
[41] = biological target: Mitogen-activated protein kinase 8 (Homo sapiens, UniProt P45983); assay: Inhibition of JNK1 (unknown origin) by ADP-Glo Kinase assay
[42] = biological target: AMP-activated protein kinase (AMPK) alpha-1/beta-1/gamma-1 (Homo sapiens, UniProt P54619+Q13131+Q9Y478); assay: Inhibition of AMPKalpha1/beta1/gamma1 (unknown origin) by ADP-Glo Kinase assay; format: protein-complex assay
AMP-activated protein kinase (AMPK) alpha-1/beta-1/gamma-1, sequence (P54619 whole entry): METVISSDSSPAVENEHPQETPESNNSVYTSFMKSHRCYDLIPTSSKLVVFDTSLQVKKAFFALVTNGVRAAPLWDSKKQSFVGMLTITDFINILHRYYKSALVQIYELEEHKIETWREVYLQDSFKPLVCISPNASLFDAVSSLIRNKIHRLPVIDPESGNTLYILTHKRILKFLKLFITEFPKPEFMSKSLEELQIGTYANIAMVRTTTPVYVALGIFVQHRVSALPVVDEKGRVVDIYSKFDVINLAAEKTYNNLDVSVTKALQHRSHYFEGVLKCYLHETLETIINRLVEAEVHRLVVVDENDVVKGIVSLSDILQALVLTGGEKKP
AMP-activated protein kinase (AMPK) alpha-1/beta-1/gamma-1, sequence (Q9Y478 whole entry): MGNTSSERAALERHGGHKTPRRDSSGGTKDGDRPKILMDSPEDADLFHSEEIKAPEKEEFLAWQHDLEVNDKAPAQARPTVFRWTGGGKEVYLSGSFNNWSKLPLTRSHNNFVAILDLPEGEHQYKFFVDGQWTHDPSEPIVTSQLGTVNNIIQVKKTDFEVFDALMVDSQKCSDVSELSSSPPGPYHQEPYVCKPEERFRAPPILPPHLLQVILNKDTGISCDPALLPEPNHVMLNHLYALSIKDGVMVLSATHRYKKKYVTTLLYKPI
AMP-activated protein kinase (AMPK) alpha-1/beta-1/gamma-1, sequence (Q13131 whole entry): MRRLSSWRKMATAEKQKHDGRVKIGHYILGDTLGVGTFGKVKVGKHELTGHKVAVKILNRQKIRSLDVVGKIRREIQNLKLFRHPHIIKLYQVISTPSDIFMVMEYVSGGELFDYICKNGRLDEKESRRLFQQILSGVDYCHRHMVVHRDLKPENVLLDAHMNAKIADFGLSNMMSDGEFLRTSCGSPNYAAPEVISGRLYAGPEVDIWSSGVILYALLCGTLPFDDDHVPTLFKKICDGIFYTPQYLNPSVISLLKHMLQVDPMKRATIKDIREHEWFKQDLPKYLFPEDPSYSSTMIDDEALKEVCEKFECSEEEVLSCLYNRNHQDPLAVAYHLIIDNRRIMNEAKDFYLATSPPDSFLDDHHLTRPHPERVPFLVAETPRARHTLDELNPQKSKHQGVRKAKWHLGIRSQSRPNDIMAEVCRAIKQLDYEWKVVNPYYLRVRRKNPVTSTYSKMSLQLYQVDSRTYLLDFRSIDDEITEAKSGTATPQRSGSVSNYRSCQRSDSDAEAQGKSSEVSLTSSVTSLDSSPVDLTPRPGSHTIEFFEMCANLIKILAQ

T1 sequence (Q99558 whole entry): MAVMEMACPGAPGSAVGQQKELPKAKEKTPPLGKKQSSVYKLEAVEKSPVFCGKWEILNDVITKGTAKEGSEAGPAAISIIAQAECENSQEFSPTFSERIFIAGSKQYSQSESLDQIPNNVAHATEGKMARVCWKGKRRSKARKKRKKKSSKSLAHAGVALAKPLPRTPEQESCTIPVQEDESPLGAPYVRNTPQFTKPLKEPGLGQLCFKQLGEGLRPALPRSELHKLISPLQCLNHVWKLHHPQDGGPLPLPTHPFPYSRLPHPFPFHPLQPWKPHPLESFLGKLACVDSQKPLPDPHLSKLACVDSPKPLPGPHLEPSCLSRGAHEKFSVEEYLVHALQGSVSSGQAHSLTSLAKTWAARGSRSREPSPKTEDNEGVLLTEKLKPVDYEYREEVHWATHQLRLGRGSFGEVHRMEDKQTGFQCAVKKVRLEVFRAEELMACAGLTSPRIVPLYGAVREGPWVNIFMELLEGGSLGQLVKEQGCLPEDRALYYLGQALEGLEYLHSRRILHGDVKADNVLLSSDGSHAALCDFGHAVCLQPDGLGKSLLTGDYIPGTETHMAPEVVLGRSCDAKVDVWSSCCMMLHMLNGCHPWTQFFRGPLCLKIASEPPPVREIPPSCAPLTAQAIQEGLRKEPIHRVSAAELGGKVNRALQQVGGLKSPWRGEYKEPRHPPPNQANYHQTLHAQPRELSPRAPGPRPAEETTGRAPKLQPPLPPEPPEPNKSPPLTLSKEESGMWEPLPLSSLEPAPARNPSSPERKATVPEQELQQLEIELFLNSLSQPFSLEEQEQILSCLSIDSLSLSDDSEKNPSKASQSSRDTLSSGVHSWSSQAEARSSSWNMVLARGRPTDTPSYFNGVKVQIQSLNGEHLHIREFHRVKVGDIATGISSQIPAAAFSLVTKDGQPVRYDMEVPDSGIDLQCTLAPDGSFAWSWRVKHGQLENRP
Mitogen-activated protein kinase 8, sequence (P45983 whole entry): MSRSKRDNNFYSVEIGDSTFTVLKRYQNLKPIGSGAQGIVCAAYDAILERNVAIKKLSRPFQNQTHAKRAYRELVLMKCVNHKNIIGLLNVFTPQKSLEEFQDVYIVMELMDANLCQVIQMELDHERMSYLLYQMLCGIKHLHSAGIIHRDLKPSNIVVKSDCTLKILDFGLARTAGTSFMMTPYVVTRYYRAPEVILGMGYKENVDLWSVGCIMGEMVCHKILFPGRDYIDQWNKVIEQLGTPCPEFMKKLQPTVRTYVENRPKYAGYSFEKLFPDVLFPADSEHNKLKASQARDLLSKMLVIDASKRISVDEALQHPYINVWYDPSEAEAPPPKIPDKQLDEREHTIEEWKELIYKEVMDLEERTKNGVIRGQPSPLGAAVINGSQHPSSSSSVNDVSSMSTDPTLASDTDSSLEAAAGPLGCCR

half-life [1]: 44.5 min | Tmax [3]: 30 min | IC50 [6]: 1.19 µM | AUC(0-t) at 24 h [7]: 3020 ng·h/mL | IC50 (Macrophage): 78.1 µM | half-life [13]: 136 min | Cmax [14]: 1280 ng/mL | AUC(0-t) at 24 h [17]: 2520 ng·h/mL | half-life at 1 µM [20]: 25.9 min | half-life at 1 µM [23]: 19.5 min | microsomal CLint at 1 µM [24]: 71 µL/min/mg | C0 at 24 h [25]: 5060 ng/mL | IC50 [30]: 0.00127 µM | AUC(0-inf) [33]: 2550 ng·h/mL | microsomal CLint at 1 µM [34]: 53.6 µL/min/mg | clearance [36]: 56.2 mL/min/kg | AUC(0-inf) [40]: 3020 ng·h/mL | IC50 [41]: 541 µM | IC50 [42]: 288 µM
SMILES: COc1cc(Nc2nccc(N3CCCn4nc(C#C[C@@](C)(O)c5nccs5)cc43)n2)cc(OC)c1
Activity (Mus musculus [2]): Active | Activity (Mus musculus [4]): Active | Activity (Mus musculus [5]): Active | Activity (Mus musculus [8]): Active | Activity (Mus musculus [9]): Active | Activity (Mus musculus [10]): Active | Activity (RAW264.7 [11]): Non-Toxic | Activity (Mus musculus [12]): Active | Activity (Mus musculus [15]): Active | Activity (Mus musculus [16]): Active | Activity (RAW264.7 [18]): Active | Activity (Mus musculus [19]): Active | Activity (Mus musculus [21]): Active | Activity (RAW264.7 [22]): Active | Activity (RAW264.7 [26]): Active | Activity (Mus musculus [27]): Active | Activity (Mus musculus [28]): Active | Activity (RAW264.7 [29]): Non-Toxic | Activity (Mus musculus [31]): Active | Activity (Mus musculus [32]): Active | Activity (Mus musculus [35]): Active | Activity (COS-7 [37]): Non-Toxic | Activity (Mus musculus [38]): Active | Activity (COS-7 [39]): Non-Toxic
